BindingDB's records for patent US8680132 (University of Michigan, 2014)

Molecular target: E3 ubiquitin-protein ligase Mdm2 (Homo sapiens, UniProt Q00987)
Experiment: Fluorescence-polarization Binding Assay
Details: pH 7.5

E3 ubiquitin-protein ligase Mdm2, sequence (Q00987 whole entry): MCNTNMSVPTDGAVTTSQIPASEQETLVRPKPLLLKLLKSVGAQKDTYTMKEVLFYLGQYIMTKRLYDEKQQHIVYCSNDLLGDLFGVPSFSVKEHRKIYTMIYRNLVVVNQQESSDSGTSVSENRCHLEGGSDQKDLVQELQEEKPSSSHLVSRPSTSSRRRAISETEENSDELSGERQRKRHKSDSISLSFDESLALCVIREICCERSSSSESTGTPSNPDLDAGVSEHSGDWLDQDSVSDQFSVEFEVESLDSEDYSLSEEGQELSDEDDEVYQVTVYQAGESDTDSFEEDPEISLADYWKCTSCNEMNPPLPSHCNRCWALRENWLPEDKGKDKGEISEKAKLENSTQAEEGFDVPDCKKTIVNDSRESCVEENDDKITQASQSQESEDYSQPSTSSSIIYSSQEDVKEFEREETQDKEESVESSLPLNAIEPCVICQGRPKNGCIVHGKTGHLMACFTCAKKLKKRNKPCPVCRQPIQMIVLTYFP

- IC50: < 1000 nM
Structure (SMILES): O=C(NCC[C@H](O)CO)[C@@H]1N[C@H](CC2CCCCC2)[C@]2(C(=O)Nc3cc(Cl)c(F)cc32)[C@H]1c1cccc(Cl)c1
